Assays:
Assay in all cases: Test D pre/postemergence
Type in all cases: in vivo
Conditions in all cases: scale 0 to 100 (100 = complete control)
[1] = tested on: Russian thistle (Salsola kali)
Outline: (§1)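 Weed and cereal species treated preemergence, or postemergence at 2–18 cm (1- to 4-leaf stage), with test chemicals in non-phytotoxic solvent with surfactant. Kept in controlled growth environment 15 to 25 days, then rated visually against controls on a 0 (no effect) to 100 (complete control) scale.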

[2] = tested on: wheat (Triticum aestivum)
Outline: as §1

[3] = tested on: wild buckwheat (Polygonum convolvulus)
Outline: as §1

[4] = tested on: lambsquarters (Chenopodium album)
Outline: as §1

kochia (Kochia scoparia) = tested on: kochia (Kochia scoparia)
Outline: as §1

[5] = tested on: common chickweed (Stellaria media)
Outline: as §1

[6] = tested on: wild mustard (Sinapis arvensis)
Outline: as §1

CCOC(=O)C(OC(C)=O)c1nc(C2CC2)nc(N)c1Br (stereo not shown) [Compound 47]
Plant response rating, Russian Thistle ([1]; Postemergence, 31 g ai/ha): 45
Plant response rating, Russian Thistle ([1]; Postemergence, 62 g ai/ha): 55
Plant response rating, Russian Thistle ([1]; Postemergence, 125 g ai/ha): 65
Plant response rating, Russian Thistle ([1]; Postemergence, 250 g ai/ha): 70
Plant response rating, Wheat ([2]; Postemergence, 31 g ai/ha): 30
Plant response rating, Wheat ([2]; Postemergence, 62 g ai/ha): 35
Plant response rating, Wheat ([2]; Postemergence, 125 g ai/ha): 35
Plant response rating, Wheat ([2]; Postemergence, 250 g ai/ha): 45
Plant response rating, Buckwheat, Wild ([3]; Postemergence, 31 g ai/ha): 60
Plant response rating, Buckwheat, Wild ([3]; Postemergence, 62 g ai/ha): 65
Plant response rating, Buckwheat, Wild ([3]; Postemergence, 125 g ai/ha): 65
Plant response rating, Buckwheat, Wild ([3]; Postemergence, 250 g ai/ha): 70
Plant response rating, Lambsquarters ([4]; Postemergence, 31 g ai/ha): 35
Plant response rating, Lambsquarters ([4]; Postemergence, 62 g ai/ha): 35
Plant response rating, Lambsquarters ([4]; Postemergence, 125 g ai/ha): 40
Plant response rating, Lambsquarters ([4]; Postemergence, 250 g ai/ha): 45
Plant response rating, Kochia (kochia (Kochia scoparia); Postemergence, 31 g ai/ha): 45
Plant response rating, Kochia (kochia (Kochia scoparia); Postemergence, 62 g ai/ha): 50
Plant response rating, Kochia (kochia (Kochia scoparia); Postemergence, 125 g ai/ha): 65
Plant response rating, Kochia (kochia (Kochia scoparia); Postemergence, 250 g ai/ha): 75
Plant response rating, Chickweed ([5]; Postemergence, 31 g ai/ha): 35
Plant response rating, Chickweed ([5]; Postemergence, 62 g ai/ha): 60
Plant response rating, Chickweed ([5]; Postemergence, 125 g ai/ha): 65
Plant response rating, Chickweed ([5]; Postemergence, 250 g ai/ha): 70
Plant response rating, Mustard, Wild ([6]; Postemergence, 31 g ai/ha): 55
Plant response rating, Mustard, Wild ([6]; Postemergence, 62 g ai/ha): 60
Plant response rating, Mustard, Wild ([6]; Postemergence, 125 g ai/ha): 65
Plant response rating, Mustard, Wild ([6]; Postemergence, 250 g ai/ha): 70

COC(=O)c1nc(-c2ccc(Cl)cc2)nc(N)c1Cl [Compound 58, methyl 6-amino-5-chloro-2-(4-chlorophenyl)-4-pyrimidinecarboxylate]
Plant response rating, Russian Thistle ([1]; Postemergence, 62 g ai/ha): 70
Plant response rating, Russian Thistle ([1]; Postemergence, 125 g ai/ha): 70
Plant response rating, Russian Thistle ([1]; Postemergence, 250 g ai/ha): 70
Plant response rating, Russian Thistle ([1]; Postemergence, 500 g ai/ha): 80
Plant response rating, Russian Thistle ([1]; Preemergence, 62 g ai/ha): 40
Plant response rating, Russian Thistle ([1]; Preemergence, 125 g ai/ha): 65
Plant response rating, Russian Thistle ([1]; Preemergence, 250 g ai/ha): 70
Plant response rating, Russian Thistle ([1]; Preemergence, 500 g ai/ha): 85
Plant response rating, Wheat ([2]; Postemergence, 62 g ai/ha): 55
Plant response rating, Wheat ([2]; Postemergence, 125 g ai/ha): 60
Plant response rating, Wheat ([2]; Postemergence, 250 g ai/ha): 70
Plant response rating, Wheat ([2]; Postemergence, 500 g ai/ha): 85
Plant response rating, Wheat ([2]; Preemergence, 62 g ai/ha): 25
Plant response rating, Wheat ([2]; Preemergence, 125 g ai/ha): 50
Plant response rating, Wheat ([2]; Preemergence, 250 g ai/ha): 60
Plant response rating, Wheat ([2]; Preemergence, 500 g ai/ha): 70
Plant response rating, Buckwheat, Wild ([3]; Postemergence, 62 g ai/ha): 65
Plant response rating, Buckwheat, Wild ([3]; Postemergence, 125 g ai/ha): 90
Plant response rating, Buckwheat, Wild ([3]; Postemergence, 250 g ai/ha): 100
Plant response rating, Buckwheat, Wild ([3]; Postemergence, 500 g ai/ha): 100
Plant response rating, Buckwheat, Wild ([3]; Preemergence, 62 g ai/ha): 40
Plant response rating, Buckwheat, Wild ([3]; Preemergence, 125 g ai/ha): 80
Plant response rating, Buckwheat, Wild ([3]; Preemergence, 250 g ai/ha): 100
Plant response rating, Buckwheat, Wild ([3]; Preemergence, 500 g ai/ha): 100
Plant response rating, Lambsquarters ([4]; Postemergence, 62 g ai/ha): 80
Plant response rating, Lambsquarters ([4]; Postemergence, 125 g ai/ha): 85
Plant response rating, Lambsquarters ([4]; Postemergence, 250 g ai/ha): 100
Plant response rating, Lambsquarters ([4]; Postemergence, 500 g ai/ha): 100
Plant response rating, Lambsquarters ([4]; Preemergence, 62 g ai/ha): 60
Plant response rating, Lambsquarters ([4]; Preemergence, 125 g ai/ha): 100
Plant response rating, Lambsquarters ([4]; Preemergence, 250 g ai/ha): 100
Plant response rating, Lambsquarters ([4]; Preemergence, 500 g ai/ha): 100
Plant response rating, Kochia (kochia (Kochia scoparia); Postemergence, 62 g ai/ha): 70
Plant response rating, Kochia (kochia (Kochia scoparia); Postemergence, 125 g ai/ha): 100
Plant response rating, Kochia (kochia (Kochia scoparia); Postemergence, 250 g ai/ha): 100
Plant response rating, Kochia (kochia (Kochia scoparia); Postemergence, 500 g ai/ha): 100
Plant response rating, Kochia (kochia (Kochia scoparia); Preemergence, 62 g ai/ha): 35
Plant response rating, Kochia (kochia (Kochia scoparia); Preemergence, 125 g ai/ha): 95
Plant response rating, Kochia (kochia (Kochia scoparia); Preemergence, 250 g ai/ha): 100
Plant response rating, Kochia (kochia (Kochia scoparia); Preemergence, 500 g ai/ha): 100
Plant response rating, Chickweed ([5]; Preemergence, 62 g ai/ha): 60
Plant response rating, Chickweed ([5]; Preemergence, 250 g ai/ha): 75
Plant response rating, Chickweed ([5]; Preemergence, 500 g ai/ha): 100
Plant response rating, Mustard, Wild ([6]; Postemergence, 62 g ai/ha): 100
Plant response rating, Mustard, Wild ([6]; Postemergence, 125 g ai/ha): 100
Plant response rating, Mustard, Wild ([6]; Postemergence, 250 g ai/ha): 100
Plant response rating, Mustard, Wild ([6]; Postemergence, 500 g ai/ha): 100
Plant response rating, Mustard, Wild ([6]; Preemergence, 62 g ai/ha): 65
Plant response rating, Mustard, Wild ([6]; Preemergence, 125 g ai/ha): 100
Plant response rating, Mustard, Wild ([6]; Preemergence, 250 g ai/ha): 100
Plant response rating, Mustard, Wild ([6]; Preemergence, 500 g ai/ha): 100
